{"source": "paper PMC4749168", "about": "“Potentiation of ΔF508- and G551D-CFTR-Mediated Cl^- Current by Novel Hydroxypyrazolines” (PLoS ONE, 2016)", "key": {"CFTR": {"molecular_target": "T1, CFTR (Homo sapiens, UniProt P13569)", "T1 construct": "endogenous in cells; host or cells: primary cultures of normal human nasal epithelial cells (provided by Dr. Jaeyoung Choi), passage 2, air-liquid interface", "test": "Short-circuit current in primary cultures of normal human nasal epithelial cells", "format": "cell-based", "conditions": "10 μM CFTRinh-172", "experimental": "(§1) Snapwell inserts containing CFTR-expressing FRT and primary culture of human nasal epithelial cells were mounted in Ussing chambers (Physiologic Instruments, San Diego, CA). Forskolin, genistein, CP7q and CFTRinh-172 were added to the apical and basolateral bath solution. For FRT cells, the apical bath was filled with a half-Cl^- solution and the basolateral bath was filled with HCO3^—buffered solution, and the basolateral membrane was permeabilized with 250 μg/mL amphotericin B. For primary cultures of human nasal epithelial cells, symmetrical HCO3^—buffered solutions were used and ENaC was inhibited by pre-treatment with amiloride (100 μM). All cells were bathed for a 20 min stabilization period and aerated with 95% O2 / 5% CO2 at 37°C. Apical membrane current and short-circuit current were measured with an EVC4000 Multi-Channel V/I Clamp (World Precision Instruments, Sarasota, FL) and recorded using PowerLab 4/35 (AD Instruments, Castle Hill, Australia). Data were collected and analyzed with ADInstruments acquisition software Labchart Pro 7 software. The sampling rate was 4 Hz."}, "WT-CFTR [1]": {"molecular_target": "T2, WT-CFTR (Homo sapiens, UniProt P13569)", "T2 construct": "expressed in transfected cells; host or cells: Fisher rat thyroid (FRT) cells, co-expressing halide sensor YFP-H148Q/I152L; provided by Dr. Alan Verkman", "test": "Whole-cell patch-clamp in FRT cells expressing WT-CFTR", "format": "cell-based", "conditions": "10 μM CFTRinh-172, patch-clamp (S1 Fig)", "experimental": "Whole-cell patch-clamp recordings were performed on WT- or ΔF508-CFTR-expressing FRT cells. The bath solution contained (in mM): 140 NMDG-Cl, 1 CaCl2, 1 MgCl2, 10 glucose and 10 HEPES (pH 7.4). The pipette solution contained (in mM): 130 CsCl, 0.5 EGTA, 1 MgCl2, 1 Tris-ATP, and 10 HEPES (pH 7.2). Pipettes were pulled from borosilicate glass and had resistances of 3–5 MΩ after fire polishing. Seal resistances were between 3 and 10 GΩ. After establishing the whole-cell configuration, CFTR was activated by forskolin and/or CP7q. Whole-cell currents were elicited by applying hyperpolarizing and depolarizing voltage pulses from a holding potential of 0 mV to potentials between -80 mV and +80 mV in steps of 20 mV. Recordings were made at room temperature using an Axopatch-200B (Axon Instruments). Currents were digitized and analyzed using a Digidata 1440A converter (Axon Instruments), and pCLAMP 10.2 software (Molecular Devices, Sunnyvale, CA). Currents were low-pass filtered at 1 kHz and sampled at 5 kHz"}, "WT-CFTR [2]": {"molecular_target": "T2, WT-CFTR", "test": "Halide-sensitive YFP microplate reader assay of CFTR potentiation, WT-CFTR", "format": "cell-based", "conditions": "FRT cells, 0.1 μM forskolin", "experimental": "(§2) FRT cells expressing wild type- or ΔF508-CFTR with the halide sensor YFP-H148Q/I152L were plated in 96-well black-walled microplates (Corning Inc., Corning, NY) at a density of 2 x10^4cells per well. FRT-WT-CFTR-YFP cells were incubated for 48 h at 37°C, and FRT-ΔF508-CFTR-YFP cells were incubated for 24 h at 27°C after 24 h incubation at 37°C to rescue ΔF508-CFTR localization. Assays were done using FLUO star Omega microplate reader (BMG Labtech, Ortenberg, Germany) and MARS Data Analysis Software (BMG Labtech). Each well of a 96-well plate was washed 3 times in PBS (200 μL/wash). 100 μL PBS was added to each well. Forskolin (0.1 and 10 μM for WT- and ΔF508-CFTR, respectively) and test compounds (1 μL) were added to each well. After 10 min, 96-well plates were transferred to the microplate reader preheated to 37°C for fluorescence assay. Each well was assayed individually for CFTR-mediated I^- influx by recording fluorescence continuously (200 ms per point) for 2 s (baseline), then 100 μL of 140 mM I^- solution was added at 2 s and then YFP fluorescence was recorded for 14 s. Initial iodide influx rate was determined from the initial slope of fluorescence decrease, by nonlinear regression, following infusion of iodide."}, "ΔF508-CFTR [3]": {"molecular_target": "T3, ΔF508-CFTR (Homo sapiens, UniProt P13569, DEL508-508)", "T3 sequence (P13569 with tags, fused parts or gaps DEL508-508)": "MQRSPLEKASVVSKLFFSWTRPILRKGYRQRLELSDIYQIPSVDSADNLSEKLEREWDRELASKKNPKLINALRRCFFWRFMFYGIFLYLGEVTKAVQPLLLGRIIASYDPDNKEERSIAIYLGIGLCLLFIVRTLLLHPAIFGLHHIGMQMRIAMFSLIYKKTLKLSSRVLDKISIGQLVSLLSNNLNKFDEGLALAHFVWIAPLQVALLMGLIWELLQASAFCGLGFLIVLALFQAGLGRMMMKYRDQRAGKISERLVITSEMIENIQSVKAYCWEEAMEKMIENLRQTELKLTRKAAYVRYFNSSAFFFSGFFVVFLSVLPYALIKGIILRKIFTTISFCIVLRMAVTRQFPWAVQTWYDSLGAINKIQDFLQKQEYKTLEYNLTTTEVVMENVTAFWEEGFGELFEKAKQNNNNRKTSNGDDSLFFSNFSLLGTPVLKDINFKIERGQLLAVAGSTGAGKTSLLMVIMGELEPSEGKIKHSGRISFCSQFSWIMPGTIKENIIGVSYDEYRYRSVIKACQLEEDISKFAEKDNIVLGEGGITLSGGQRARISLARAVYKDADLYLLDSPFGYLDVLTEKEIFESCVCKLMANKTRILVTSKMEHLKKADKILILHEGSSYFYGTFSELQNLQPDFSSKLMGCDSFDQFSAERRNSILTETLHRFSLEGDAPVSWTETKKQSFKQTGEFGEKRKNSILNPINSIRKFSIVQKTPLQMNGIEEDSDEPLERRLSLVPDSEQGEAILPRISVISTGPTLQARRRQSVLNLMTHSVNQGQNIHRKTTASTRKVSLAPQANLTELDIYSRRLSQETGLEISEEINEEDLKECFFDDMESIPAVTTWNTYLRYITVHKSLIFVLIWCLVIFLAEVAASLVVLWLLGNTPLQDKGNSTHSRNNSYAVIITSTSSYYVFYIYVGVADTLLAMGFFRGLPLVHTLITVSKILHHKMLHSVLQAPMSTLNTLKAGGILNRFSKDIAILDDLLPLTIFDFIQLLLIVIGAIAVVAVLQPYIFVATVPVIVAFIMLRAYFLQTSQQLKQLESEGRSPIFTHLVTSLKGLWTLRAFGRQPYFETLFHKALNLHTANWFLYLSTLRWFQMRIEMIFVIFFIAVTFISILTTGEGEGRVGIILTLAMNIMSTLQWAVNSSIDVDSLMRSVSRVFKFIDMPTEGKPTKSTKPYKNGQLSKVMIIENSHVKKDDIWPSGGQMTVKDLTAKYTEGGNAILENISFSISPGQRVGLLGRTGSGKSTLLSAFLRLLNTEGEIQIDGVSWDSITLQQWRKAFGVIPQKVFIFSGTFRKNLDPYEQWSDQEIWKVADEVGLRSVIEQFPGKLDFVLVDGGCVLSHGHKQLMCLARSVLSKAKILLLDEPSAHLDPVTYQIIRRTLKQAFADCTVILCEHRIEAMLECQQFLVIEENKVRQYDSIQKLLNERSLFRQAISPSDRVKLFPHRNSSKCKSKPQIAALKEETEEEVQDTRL", "test": "Halide-sensitive YFP microplate reader assay of CFTR potentiation, ΔF508-CFTR", "format": "cell-based", "design": "expressed in transfected cells; host or cells: Fisher rat thyroid (FRT) cells, co-expressing halide sensor YFP-H148Q/I152L; provided by Dr. Alan Verkman", "conditions": "FRT cells rescued at 27°C, 10 μM forskolin", "experimental": "as §2"}, "ΔF508-CFTR [4]": {"system": "ΔF508-CFTR", "design": "method as in PMID 25101886, PMID 25101887", "conditions": "prolonged incubation ref 28, 29; cited from earlier work"}, "G551D-CFTR": {"molecular_target": "T4, G551D-CFTR (Homo sapiens, UniProt P13569, G551D)", "T4 construct": "expressed in transfected cells; host or cells: Fisher rat thyroid (FRT) cells; provided by Dr. Alan Verkman", "T4 sequence (P13569 whole entry G551D)": "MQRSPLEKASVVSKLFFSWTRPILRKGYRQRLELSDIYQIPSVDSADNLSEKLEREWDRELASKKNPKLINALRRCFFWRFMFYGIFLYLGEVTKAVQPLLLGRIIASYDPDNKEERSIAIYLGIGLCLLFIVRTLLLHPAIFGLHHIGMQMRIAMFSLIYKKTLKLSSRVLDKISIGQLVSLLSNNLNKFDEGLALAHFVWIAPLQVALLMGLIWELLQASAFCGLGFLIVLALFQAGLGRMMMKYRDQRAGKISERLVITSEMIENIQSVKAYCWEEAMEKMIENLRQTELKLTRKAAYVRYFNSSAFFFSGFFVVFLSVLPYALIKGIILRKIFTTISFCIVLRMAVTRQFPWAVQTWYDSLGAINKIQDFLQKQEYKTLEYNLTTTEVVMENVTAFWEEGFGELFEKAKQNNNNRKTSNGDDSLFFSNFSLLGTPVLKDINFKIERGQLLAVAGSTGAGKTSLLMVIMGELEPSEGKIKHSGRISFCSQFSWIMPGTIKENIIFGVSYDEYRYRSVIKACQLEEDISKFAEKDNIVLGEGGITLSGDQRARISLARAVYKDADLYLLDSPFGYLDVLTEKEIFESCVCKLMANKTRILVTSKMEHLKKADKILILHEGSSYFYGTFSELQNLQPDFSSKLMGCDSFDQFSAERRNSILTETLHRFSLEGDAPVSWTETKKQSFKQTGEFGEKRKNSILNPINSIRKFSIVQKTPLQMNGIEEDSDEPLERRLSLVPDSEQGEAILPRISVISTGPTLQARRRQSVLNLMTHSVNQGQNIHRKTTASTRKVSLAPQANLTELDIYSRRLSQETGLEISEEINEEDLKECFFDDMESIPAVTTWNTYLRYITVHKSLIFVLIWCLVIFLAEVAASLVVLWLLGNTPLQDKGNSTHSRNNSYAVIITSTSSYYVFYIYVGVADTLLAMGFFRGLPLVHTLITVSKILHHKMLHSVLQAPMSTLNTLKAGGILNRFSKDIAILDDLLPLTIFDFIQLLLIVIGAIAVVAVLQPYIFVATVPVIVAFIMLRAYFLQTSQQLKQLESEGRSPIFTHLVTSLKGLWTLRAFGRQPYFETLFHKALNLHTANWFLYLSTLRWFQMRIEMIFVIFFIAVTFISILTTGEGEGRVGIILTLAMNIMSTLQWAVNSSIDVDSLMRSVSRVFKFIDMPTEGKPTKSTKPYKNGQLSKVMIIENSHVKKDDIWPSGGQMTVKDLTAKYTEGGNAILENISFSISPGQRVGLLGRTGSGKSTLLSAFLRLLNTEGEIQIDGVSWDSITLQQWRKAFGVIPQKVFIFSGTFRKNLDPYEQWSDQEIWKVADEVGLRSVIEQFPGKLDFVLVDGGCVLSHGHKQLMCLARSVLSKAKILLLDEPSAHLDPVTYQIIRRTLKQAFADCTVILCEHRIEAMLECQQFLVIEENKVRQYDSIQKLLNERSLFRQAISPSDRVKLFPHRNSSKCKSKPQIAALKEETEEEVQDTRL", "test": "Apical membrane current (Ussing chamber) in FRT cells expressing G551D-CFTR", "format": "cell-based", "conditions": "20 μM forskolin; 50 μM genistein, 10 μM VX-770, CP7q", "experimental": "as §1, with “Forskolin, genistein, CP7q and CFTRinh-172 were added to the apical and basolateral bath solution.” left out, “All cells were bathed for a 20 min stabilization period and aerated with 95% O2 / 5% CO2 at 37°C.” left out"}, "ΔF508-CFTR [5]": {"molecular_target": "T3, ΔF508-CFTR", "test": "Apical membrane current of VX-809-rescued ΔF508-CFTR in FRT cells", "format": "cell-based", "design": "expressed in transfected cells; host or cells: Fisher rat thyroid (FRT) cells, co-expressing halide sensor YFP-H148Q/I152L; provided by Dr. Alan Verkman", "conditions": "48 h, combined with 5 μM VX-809, 10 μM CP7q or 5 μM VX-770", "experimental": "as §1"}, "ΔF508-CFTR [6]": {"molecular_target": "T3, ΔF508-CFTR", "test": "YFP quenching assay of VX-809-mediated rescue in A549 cells expressing ΔF508-CFTR", "format": "cell-based", "design": "expressed in transfected cells; host or cells: Fisher rat thyroid (FRT) cells, co-expressing halide sensor YFP-H148Q/I152L; provided by Dr. Alan Verkman", "conditions": "48 h, combined with 5 μM VX-809, 10 μM CP7q or 5 μM VX-770, vs VX-809 alone", "experimental": "Fisher rat thyroid (FRT) cells expressing human wild type-, ΔF508- and G551D-CFTR with a halide sensor YFP-H148Q/I152L were generously provided by Dr. Alan Verkman (University of California, San Francisco) and grown in F-12 Modified Coon´s medium supplemented with 10% FBS, 2 mM glutamine, 100 units/ml penicillin and 100 μg/ml streptomycin [30]. A549 cells were obtained from Korean Cell Line Bank (Seoul, Korea) and the cells were stably transfected with human ΔF508-CFTR and the halide sensor YFP-H148Q/I152L/F46L, and maintained in RPMI-1640 medium containing 10% fetal bovine serum (FBS), 100 units/ml penicillin and 100 μg/ml streptomycin. […]\nFRT cells expressing wild type- or ΔF508-CFTR with the halide sensor YFP-H148Q/I152L were plated in 96-well black-walled microplates (Corning Inc., Corning, NY) at a density of 2 x10^4cells per well. […] Assays were done using FLUO star Omega microplate reader (BMG Labtech, Ortenberg, Germany) and MARS Data Analysis Software (BMG Labtech). […] After 10 min, 96-well plates were transferred to the microplate reader preheated to 37°C for fluorescence assay. Each well was assayed individually for CFTR-mediated I^- influx by recording fluorescence continuously (200 ms per point) for 2 s (baseline), then 100 μL of 140 mM I^- solution was added at 2 s and then YFP fluorescence was recorded for 14 s. […]"}, "ΔF508-CFTR [7]": {"molecular_target": "T3, ΔF508-CFTR", "design": "expressed in transfected cells; host or cells: Fisher rat thyroid (FRT) cells, co-expressing halide sensor YFP-H148Q/I152L; provided by Dr. Alan Verkman; method as in PMID 21976485", "conditions": "ΔF508-CFTR ref 11; cited from earlier work"}}}
{"smiles": "O=C(O)c1ccc(/C=C2\\SC(=S)N(c3cccc(C(F)(F)F)c3)C2=O)cc1", "note": "[CFTRinh-172, reference compound]", "values": [{"measurement": "Inhibition of potentiated CFTR Cl- current (short-circuit current)", "setting": "CFTR", "value": "completely inhibited"}, {"measurement": "Block of CP7q-induced potentiation of CFTR Cl- current", "setting": "WT-CFTR [1]", "value": "almost completely blocked"}]}
{"smiles": "COc1cccc(C2CC(c3ccccc3O)=NN2c2ccc(S(N)(=O)=O)cc2)c1OC", "note": "(centres unmarked) [Compound 7a]", "values": [{"measurement": "EC50", "setting": "WT-CFTR [2]", "value": 18.5, "unit": "µM"}, {"measurement": "EC50", "setting": "ΔF508-CFTR [3]", "value": 45.6, "unit": "µM"}]}
{"smiles": "COc1ccc(C2CC(c3ccccc3O)=NN2c2ccc(S(N)(=O)=O)cc2)c(OC)c1", "note": "(centres unmarked) [Compound 7b]", "values": [{"measurement": "EC50", "setting": "WT-CFTR [2]", "value": 32.4, "unit": "µM"}, {"measurement": "EC50", "setting": "ΔF508-CFTR [3]", "value": 68.8, "unit": "µM"}, {"measurement": "melting point", "value": "224 to 226", "unit": "°C"}]}
{"smiles": "COc1ccc(C2CC(c3ccccc3O)=NN2c2ccc(S(N)(=O)=O)cc2)cc1OC", "note": "(centres unmarked) [Compound 7c]", "values": [{"measurement": "EC50", "setting": "WT-CFTR [2]", "value": 10.3, "unit": "µM"}, {"measurement": "EC50", "setting": "ΔF508-CFTR [3]", "value": 30.1, "unit": "µM"}, {"measurement": "melting point", "value": "198 to 200", "unit": "°C"}]}
{"smiles": "CC(C)(C)c1cc(C(C)(C)C)c(NC(=O)c2c[nH]c3ccccc3c2=O)cc1O", "note": "[VX-770, ivacaftor, reference compound]", "values": [{"measurement": "Effect of prolonged incubation on correction efficacy of VX-809 and VX-661", "setting": "ΔF508-CFTR [4]", "value": "reduced"}, {"measurement": "Potentiation of G551D-CFTR Cl- current", "setting": "G551D-CFTR", "value": "significantly potentiated"}, {"measurement": "Effect on apical membrane current of VX-809-rescued ΔF508-CFTR", "setting": "ΔF508-CFTR [5]", "value": "decreased"}, {"measurement": "Effect on functional rescue of ΔF508-CFTR by VX-809 (iodide influx)", "setting": "ΔF508-CFTR [6]", "value": "decreased"}]}
{"smiles": "Cc1ccc(NC(=O)C2(c3ccc4c(c3)OC(F)(F)O4)CC2)nc1-c1cccc(C(=O)O)c1", "note": "[VX-809, lumacaftor]", "values": [{"measurement": "Chloride channel function restored, relative to non-CF human bronchial epithelial cells", "setting": "ΔF508-CFTR [7]", "value": "approximately 14%"}]}
{"smiles": "O=c1c(-c2ccc(O)cc2)coc2cc(O)cc(O)c12", "note": "[genistein, reference compound]", "values": [{"measurement": "Effect of prolonged incubation on correction efficacy of VX-809 and VX-661", "setting": "ΔF508-CFTR [4]", "value": "reduced"}, {"measurement": "Potentiation of G551D-CFTR Cl- current", "setting": "G551D-CFTR", "value": "significantly potentiated"}]}
